The values below come from patent US20260115205A1, “ON DEMAND FEMALE CONTRACEPTIVE” (priority 2021, published 2026).

For data set [1], the system named is women. Conditions: cited from earlier work; for serious adverse effects/events: general statement.
Data set [2] relates to normal menstruating women. The data set can be described thus: Pilot study of MEL 15 mg for 5 days in 3 normal menstruating women. It is filed as in vivo, human. The procedure: A pilot study was performed using MEL 15 mg for 5 days in 3 normal menstruating women with a control no treatment but monitored cycle and a treatment cycle. Treatment was initiated when the participant was within one day of anticipated LH surge based on the control cycle.

For data set [3] the following is noted: cited from earlier work.
For data set [4], the system named is women. Conditions: emergency contraception; cited from earlier work.
The mark [5] stands for this setting: 15 mg, 12 week rheumatoid arthritis placebo controlled trial, Mobic label.
The mark [6] stands for this setting: oral 15 mg for 5 days in normal women.
The mark [7] stands for this setting: 1.5 mg single dose, n=1359 women, Plan B One Step label.

Where “and” joins values, the source holds several entries; their conditions need not be identical. Equal values may be shown once. Read-outs that look alike come from different tables or passages of the source.

`Cc1cnc(NC(=O)C2=C(O)c3ccccc3S(=O)(=O)N2C)s1` [Meloxicam, meloxicam]: in data set [1] (15 mg taken daily for 18 days), the “incidence of adverse events” value is on record as 33.7% and the serious adverse events result is listed as “no serious adverse events reported”. Besides, in data set [1] (setting [5]), the abdominal pain is recorded as 2.6%, the dizziness is recorded as 3.8%, the dyspepsia is 4.5% and the edema is 4.5%. Also, in data set [1] (setting [5]), the headache is reported as 8.3%, the nausea was 3.8% and the skin rash is on record as 0.6%. Further, in data set [1], the serious adverse effects/events entry is given as “rare”. Further, in data set [1] (setting [6]), the adverse events is given as 27.3%, the bloating is on record as 4.5%, the hot flushes is given as 9.0% and the low abdominal pain is listed as 13.6%. Besides, the “effect on the LH surge dynamics” value in data set [2] is on record as “no effect”. For the same compound, in data set [3] (15 mg daily), the “time to steady state concentration” value is “three to five”. In addition, in data set [3] (depending upon food intake), the “time of peak serum levels” value was “five or six”. Besides, the enzyme principally metabolizing entry in data set [3] (in vivo) was “CYP2C9”.

Regarding `CC(=O)O[C@]1(C(C)=O)CC[C@H]2[C@@H]3CCC4=CC(=O)CCC4=C3[C@@H](c3ccc(N(C)C)cc3)C[C@@]21C` [ulipristal acetate], the “preventing pregnancy as interval from unprotected intercourse to use increases” value in data set [4] is given as “superior to LNG”.

Regarding `C#C[C@]1(O)CC[C@H]2[C@@H]3CCC4=CC(=O)CC[C@@H]4[C@H]3CC[C@@]21CC` [Levonorgestrel, levonorgestrel], in data set [1] (setting [7]), the breast tenderness is listed as 8.2%, the “delay of menses >7 days” value is 4.5%, the dizziness is reported as 9.6% and the fatigue is given as 13.3%. For the same compound, in data set [1] (setting [7]), the headache is 10.3%, the heavy menstrual bleeding is 30.9%, the lower abdominal pain is 13.3% and the nausea is 13.7%. In data set [1] (listed as LNG), the serious adverse effects/events entry was “have not been reported”. Moreover, the “mean peak blood level” value in data set [3] (1.5 mg, immunoassay methodology) was 18 ng/mL. Besides, in data set [3] (in vivo), the “absorption from the gastrointestinal tract” value was “almost completely absorbed”, the enzyme principally metabolizing entry was “CYP3A4” and the estimated serum half-life was 27.5 h. In data set [3] (two different laboratories, liquid chromatography and tandem mass spectrometry), the “mean peak serum level” value was 18.3 ng/mL and 10.2 ng/mL.
